Assays:
[1] = Volume of distribution of epirubicin following intravenous epirubicin solution at 1 mg.Kg-1 dose in rabbit; type: ADME, organism-based, Oryctolagus cuniculus; settings: both, New Zealand White, blood
[2] = (§1) Terminal half-life of epirubicinol following intravenous epirubicin at 1 mg.Kg-1 dose in rabbit; type: ADME, organism-based, Oryctolagus cuniculus, New Zealand White, Plasma; settings: in vivo
[3] = Plasma clearance of epirubicin following intravenous epirubicin at 60 mg.m-2 dose in cancer patients; type: ADME, organism-based; settings: human, in vivo
[4] = Plasma clearance of epirubicin following intravenous epirubicin at 40-135 mg.m-2 dose in cancer patients; type: ADME, organism-based; settings: human, in vivo
[5] = Volume of distribution as steady state of epirubicin following intravenous epirubicin at 50 mg.m-2 dose in cancer patients; type: ADME, organism-based, Plasma; settings: human, in vivo
[6] = Recovery of epirubicin following intravenous epirubicin at 1.5 mg.Kg-1 dose in man; type: ADME, organism-based, Plasma; settings: human, in vivo
[7] = Terminal half-life of epirubicin following intravenous epirubicin solution at 1 mg.Kg-1 dose in rabbit; type: ADME, organism-based, Oryctolagus cuniculus; settings: both, New Zealand White, blood
[8] = Volume of distribution of epirubicin following intravenous epirubicin at 1 mg.Kg-1 dose in rabbit; type: ADME, organism-based, Oryctolagus cuniculus; settings: both, New Zealand White, plasma
[9] = Terminal half-life of epirubicin following intravenous epirubicin at 3 mg.Kg-1 dose in rabbit; type: ADME, organism-based, Oryctolagus cuniculus; settings: both, New Zealand White, plasma
[10] = Plasma clearance of epirubicin following intrahepatic epirubicin emulsion at 1 mg.Kg-1 dose in rabbit; type: ADME, organism-based, Oryctolagus cuniculus, Blood; settings: both, New Zealand White
[11] = Volume of distribution of 4'-epiadriamycin intravenous 4'-epiadriamycin at 1.27 mg.Kg-1 dose in dog; type: ADME, organism-based, Canis lupus familiaris; settings: Beagle, plasma
[12] = Initial phase half-life of epirubicin following intravenous epirubicin at 75 mg.m-2 dose in cancer patients; type: ADME, organism-based, Plasma; settings: human, in vivo
[13] = AUC values (0-48 h) of epirubicin in plasma following single intravenous epirubicin at 10 mg.Kg-1 dose in female mouse bearing colon tumor; type: ADME, organism-based, BALB/c; settings: in vivo
[14] = Initial phase half-life of epirubicin following intravenous epirubicin at 50 mg.m-2 dose in cancer patients; type: ADME, organism-based, Plasma; settings: human, in vivo
[15] = Mortality occurred following reference intravenous epirubicin at 1 mg.Kg-1 per week in rat; type: toxicity, organism-based, SD; settings: in vivo
[16] = Half-life of terminal elimination phase of epirubicin following intravenous epirubicin at 20 mg.m-2 dose in cancer patients; type: ADME, organism-based; settings: human, plasma
[17] = Half-life of terminal elimination phase of epirubicin following intravenous epirubicin at 75 mg.m-2 dose in cancer patients; type: ADME, organism-based; settings: human, plasma
[18] = Half-life of terminal elimination phase of epirubicin following intravenous epirubicin at 90-150 mg.m-2 dose in cancer patients; type: ADME, organism-based; settings: human, plasma
[19] = Terminal elimination of metabolite of epirubicin following intravenous epirubicin at 30-90 mg.m-2 dose in cancer patients; type: ADME, organism-based, Plasma; settings: human, in vivo
[20] = as §1; type: ADME, organism-based, Oryctolagus cuniculus, New Zealand White, Plasma; settings: in vivo; remark: listed apart in the source
[21] = Percentage of epirubicin excreted unchanged in urine following epirubicin at 60 mg.m-2 dose in cancer patients; type: ADME, organism-based; settings: human, at 60 mg/m2, read-out: Compound recovery
[22] = (§2) Terminal half-life of epirubicinol following intravenous epirubicin at 3 mg.Kg-1 dose in rabbit; type: ADME, organism-based, Oryctolagus cuniculus, New Zealand White, Plasma; settings: in vivo
[23] = Terminal half-life of epirubicin following intrahepatic epirubicin emulsion at 1 mg.Kg-1 dose in rabbit; type: ADME, organism-based, Oryctolagus cuniculus; settings: both, New Zealand White, blood
[24] = AUC of epirubicin following intravenous epirubicin emulsion at 1 mg.Kg-1 dose in rabbit; type: ADME, organism-based, Oryctolagus cuniculus; settings: both, New Zealand White, blood
[25] = AUC of epirubicin following intrahepatic epirubicin solution at 1 mg.Kg-1 dose in rabbit; type: ADME, organism-based, Oryctolagus cuniculus; settings: both, New Zealand White, blood
[26] = target: Albumin (Homo sapiens, UniProt P02768); assay: Binding of epirubicin to albumin; type: cell-free; settings: read-out: Plasma protein binding (converted)
Chain of Albumin (P02768 whole entry): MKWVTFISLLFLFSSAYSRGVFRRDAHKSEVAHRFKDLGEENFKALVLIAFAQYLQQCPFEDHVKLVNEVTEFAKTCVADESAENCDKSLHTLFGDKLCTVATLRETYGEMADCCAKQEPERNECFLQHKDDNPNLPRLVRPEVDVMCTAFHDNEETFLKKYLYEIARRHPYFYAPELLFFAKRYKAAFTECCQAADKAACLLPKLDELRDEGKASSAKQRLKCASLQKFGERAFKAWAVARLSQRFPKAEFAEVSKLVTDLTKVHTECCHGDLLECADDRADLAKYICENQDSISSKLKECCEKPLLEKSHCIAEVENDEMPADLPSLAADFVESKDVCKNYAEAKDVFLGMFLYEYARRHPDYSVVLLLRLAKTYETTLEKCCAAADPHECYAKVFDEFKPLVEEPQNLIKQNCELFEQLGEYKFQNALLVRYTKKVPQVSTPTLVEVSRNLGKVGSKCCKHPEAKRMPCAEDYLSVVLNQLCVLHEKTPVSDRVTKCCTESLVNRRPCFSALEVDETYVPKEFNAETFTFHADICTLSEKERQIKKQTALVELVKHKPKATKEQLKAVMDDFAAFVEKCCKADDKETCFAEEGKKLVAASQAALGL

[27] = Detection of epirubicin in plasma following single intravenous epirubicin at 10 mg.Kg-1 dose in female mouse bearing colon tumor; type: ADME, organism-based, BALB/c; settings: in vivo
[28] = Half-life of terminal elimination phase of epirubicin following intravenous epirubicin at 60-90 mg.m-2 dose in cancer patients; type: ADME, organism-based; settings: human, plasma
[29] = Terminal elimination of metabolite of epirubicin following intravenous epirubicin at 40-135 mg.m-2 dose in cancer patients; type: ADME, organism-based, Plasma; settings: human, in vivo
[30] = AUC of epirubicin following intravenous epirubicin at 1 mg.Kg-1 dose in rabbit; type: ADME, organism-based, Oryctolagus cuniculus; settings: both, New Zealand White, plasma
[31] = Volume of distribution as steady state of epirubicin following intravenous epirubicin at 60 mg.m-2 dose in cancer patients; type: ADME, organism-based, Plasma; settings: human, in vivo
[32] = Mean AUC of epirubicin following intravenous epirubicin at 60 mg.m-2 dose in cancer patients; type: ADME, organism-based; settings: human, plasma
[33] = Mean residence time (MRT) of epirubicin following intrahepatic epirubicin emulsion at 1 mg.Kg-1 dose in rabbit; type: ADME, organism-based, Oryctolagus cuniculus; settings: both, New Zealand White, blood, read-out: Mean residence time (converted)
[34] = Incidence of leukocyturia following reference intravenous epirubicin at 1 mg.Kg-1 per week in rat; type: toxicity, organism-based, SD; settings: in vivo
[35] = Terminal half-life of epirubicin following intravenous epirubicin emulsion at 1 mg.Kg-1 dose in rabbit; type: ADME, organism-based, Oryctolagus cuniculus; settings: both, New Zealand White, blood
[36] = Initial phase half-life of epirubicin following intravenous epirubicin at 60 mg.m-2 dose in cancer patients; type: ADME, organism-based, Plasma; settings: human, in vivo
[37] = Half-life of terminal elimination phase of epirubicin following intravenous epirubicin at 25-35 mg.m-2 dose in cancer patients; type: ADME, organism-based; settings: human, plasma
[38] = Volume of distribution as steady state of epirubicin following intravenous epirubicin at 70 mg.m-2 dose in cancer patients; type: ADME, organism-based, Plasma; settings: human, in vivo
[39] = Mean AUC (8-48 h) of epirubicin following intravenous epirubicin at 1 mg.Kg-1 dose administered approximately 25 minute prior to epirubicin once weekly for four weeks in dog; type: ADME, organism-based, Canis lupus familiaris; settings: Beagle, plasma
[40] = Plasma clearance of epirubicin following intravenous epirubicin at 60-90 mg.m-2 dose in cancer patients; type: ADME, organism-based; settings: human, in vivo
[41] = as §2; type: ADME, organism-based, Oryctolagus cuniculus, New Zealand White, Plasma; settings: in vivo; remark: listed apart in the source
[42] = Initial phase half-life of epirubicin following intravenous epirubicin at 25-35 mg.m-2 dose in cancer patients; type: ADME, organism-based, Plasma; settings: human, in vivo
[43] = Decrease in albumin due to persistent proteinuria following reference intravenous epirubicin at 1 mg.Kg-1 per week in rat; type: toxicity, organism-based, SD, Serum; settings: in vivo
[44] = Plasma clearance of epirubicin following intrahepatic epirubicin solution at 1 mg.Kg-1 dose in rabbit; type: ADME, organism-based, Oryctolagus cuniculus, Blood; settings: both, New Zealand White
[45] = Plasma clearance of epirubicin following intravenous epirubicin emulsion at 1 mg.Kg-1 dose in rabbit; type: ADME, organism-based, Oryctolagus cuniculus, Blood; settings: both, New Zealand White
[46] = Plasma clearance of epirubicin following intravenous epirubicin at 75-90 mg.m-2 dose in cancer patients; type: ADME, organism-based; settings: human, in vivo
[47] = Detection of epirubicin in tumor following single intravenous epirubicin at 10 mg.Kg-1 dose in female mouse bearing colon tumor; type: ADME, organism-based, BALB/c, Neoplasm; settings: in vivo
[48] = Plasma clearance of epirubicin following intravenous epirubicin at 90-150 mg.m-2 dose in cancer patients; type: ADME, organism-based; settings: human, in vivo
[49] = Intermediate phase half-life of epirubicin following intravenous epirubicin at 75-90 mg.m-2 dose in cancer patients; type: ADME, organism-based, Plasma; settings: human, in vivo
[50] = Cumulative urinary excretion of epirubicin and its metabolites following epirubicin at 75-90 mg.m-2 dose in cancer patients; type: ADME, organism-based, Urine; settings: human, in vivo
[51] = Volume of distribution at steady state following epirubicin at 60 mg.m-2 dose in patients with cancer; type: ADME, organism-based; settings: human, plasma, read-out: Vss
[52] = Initial phase half-life of epirubicin following intravenous epirubicin at 75-90 mg.m-2 dose in cancer patients; type: ADME, organism-based, Plasma; settings: human, in vivo
[53] = Half-life of terminal elimination phase of epirubicin following intravenous epirubicin at 40-135 mg.m-2 dose in cancer patients; type: ADME, organism-based; settings: human, plasma

In the case of COc1cccc2c1C(=O)c1c(O)c3c(c(O)c1C2=O)C[C@@](O)(C(=O)CO)C[C@@H]3O[C@H]1C[C@H](N)[C@@H](O)[C@H](C)O1.Cl [EPIRUBICIN HYDROCHLORIDE], the Vd [1] is reported as 30.9 L/kg, the t1/2 [2] is reported as 0.63 h and the CLp [3] is reported as 43.1 L.h-1.m-2. The CLp [4] was 50.9 L.h-1.m-2, the Vss [5] was 583 L.m-2 and the Compound recovery [6] was 46 10^-9M. It also gave a half-life [7] of 1.06 h, a Vd [8] of 368 L/kg and a half-life [9] of 21.3 h. The CL/F [10] was 3780 mL/min, the Vd [11] was 71.9 L/kg and the t1/2 [12] was 5.4 min. The AUC [13] was 179 nmol·min/mL, the t1/2 [14] was 3.44 min and the Mortality [15] was “OUTCOME = Observed, N_AFFECTED = 5”. For the same compound, the half-life [16] was 13.9 h, the half-life [17] was 44.8 h and the half-life [18] was 42 h. For the same compound, the t1/2 [19] was 32.2 h, the t1/2 [20] was 13.97 h and the dose excreted at 7 Day [21] was 6.4%. For the same compound, the t1/2 [22] was 33.94 h, the half-life [23] was 0.868 h and the AUC [24] was 134 ng·h/mL. The AUC [25] was 65.5 ng·h/mL, the fraction unbound [26] was 0.43 and the Compound recovery [27] was “OUTCOME = Observed”. For the same compound, the half-life [28] was 40 h, the t1/2 [29] was 18.1 h and the AUC [30] was 420 ng·h/mL. For the same compound, the Vss [31] was 1272 L.m-2, the AUC [32] was 1500 ng·h/mL and the MRT [33] was 1.11 h. For the same compound, the Incidence [34] was “OUTCOME = Observed”, the half-life [35] was 0.628 h and the t1/2 [36] was 2.92 min. For the same compound, the half-life [37] was 29.3 h, the Vss [38] was 2332 L.m-2 and the AUC [39] was 233 ng·h/mL. It also gave a CLp [40] of 30.5 L.h-1.m-2, a t1/2 [41] of 1.66 h and a t1/2 [42] of 2.53 min. The ALB_CHANGE [43] was “OUTCOME = Decreased”, the CL/F [44] was 2700 mL/min and the clearance [45] was 1560 mL/min. The CLp [46] was 94.9 L.h-1.m-2, the Compound recovery [47] was “OUTCOME = Observed” and the CLp [48] was 48 L.h-1.m-2. The t1/2 [49] was 2.6 h, the Radiolabel recovery [50] was 10.7% and the Vd [51] was 32 L/kg. The t1/2 [52] was 4.8 min and the half-life [53] was 20.6 h.

— ChEMBL document CHEMBL3508140 (2016)
